Reference: patent US20250228239A1, “MOLECULES HAVING PESTICIDAL UTILITY, AND INTERMEDIATES, COMPOSITIONS, AND PROCESSES, RELATED THERETO” (priority 2024, published 2025)
Like-named read-outs stand apart in the source and are kept apart here.

Key:
Type in all cases: in vivo
[1] = test system: Beet Armyworm (Spodoptera exigua, LAPHEG); experiment: Bioassays on Beet Armyworm (BAW), 128-well diet tray assay; details: Spodoptera exigua, read-out: BAW
Method in brief: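 Mortality of second-instar larvae (1–5/well) on artificial diet treated with 50 μg/cm^2 compound, read after 5–7 days at 25° C.; values are means of eight wells.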

[2] = test system: Yellow Fever Mosquito (Aedes aegypti, AEDSAE)
Method in brief: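 Compounds from DMSO master plates (4000 ppm stock) diluted in 90:10 water/acetone, then dispensed into six replicate plates and infested with ~1-day-old Aedes aegypti larvae in liver-powder water. Held covered at room temperature for 3 days; each well scored for larval mortality and graded on a rating scale.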

[3] = test system: Cabbage Looper (Trichoplusia ni, TRIPNI); experiment: Bioassays on Cabbage Looper (CL), 128-well diet tray assay; details: Trichoplusia ni, read-out: CL
Method in brief: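 Diet tray, 2nd instar, 1–5 larvae/well; 50 μg/cm^2 compound surface-applied (acetone:water 90:10), dried; 8 wells/treatment; 25° C, 14:10 L:D, 5–7 d; % mortality, mean of 8 wells.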

[4] = Table ABC: Biological Results, species BAW
[5] = Table ABC: Biological Results, species YFM
[6] = Table ABC: Biological Results, species CL
[7] = Yellow Fever Mosquito, rating class

SMILES | pest or weed control at 50 µg/cm2 [1, 4] [%] | YFM [2, 5] | pest or weed control at 50 µg/cm2 [3, 6] [%] | pest or weed control at 50 µg/cm2 ([1]; Beet Armyworm, rating class) [%] | YFM [2, 7] | pest or weed control at 50 µg/cm2 ([3]; Cabbage Looper, rating class) [%]
CS(=O)(=O)CC(=O)Nc1c(F)ccc(NC(=O)c2cc(NC(=O)[C@H]3[C@H](c4ccc(F)c(C(F)(F)F)c4)C3(Cl)Cl)ccc2Cl)c1F [F1299, 2-Chloro-5-((1R,3R)-2,2-dichloro-3-(4-fluoro-3-(trifluoromethyl)phenyl)cyclopropane-1-carboxamido)-N-(2,4-difluoro-3-(2-(methylsulfonyl)acetamido)phenyl)benzamide] | 50 to 100 | A (80–100) | 50 to 100 |  |  | 
O=C(Nc1c(F)ccc(NC(=O)c2cc(NC(=O)[C@H]3[C@H](c4ccc(F)c(C(F)(F)F)c4)C3(Cl)Cl)ccc2Cl)c1F)c1ccco1 [F1300, N-(3-(2-Chloro-5-((1R,3R)-2,2-dichloro-3-(4-fluoro-3-(trifluoromethyl)phenyl)cyclopropane-1-carboxamido)benzamido)-2,6-difluorophenyl)furan-2-carboxamide] | 50 to 100 | A (80–100) | 50 to 100 |  |  | 
O=C(Nc1ccc(F)c(NC(=O)C(F)(F)C(F)F)c1F)c1cc(NC(=O)[C@H]2[C@H](c3ccc(F)c(C(F)(F)F)c3)C2(Cl)Cl)ccc1Cl [F1301, 2-Chloro-5-((1R,3R)-2,2-dichloro-3-(4-fluoro-3-(trifluoromethyl)phenyl)cyclopropane-1-carboxamido)-N-(2,4-difluoro-3-(2,2,3,3-tetrafluoropropanamido)phenyl)benzamide] | 50 to 100 | A (80–100) | 50 to 100 |  |  | 
O=C1CC(C(=O)Nc2c(F)ccc(NC(=O)c3cc(NC(=O)[C@H]4[C@H](c5ccc(F)c(C(F)(F)F)c5)C4(Cl)Cl)ccc3Cl)c2F)C1 [F1303, 2-Chloro-5-((1R,3R)-2,2-dichloro-3-(4-fluoro-3-(trifluoromethyl)phenyl)cyclopropane-1-carboxamido)-N-(2,4-difluoro-3-(3-oxocyclobutane-1-carboxamido)phenyl)benzamide] | 50 to 100 | A (80–100) | 50 to 100 |  |  | 
CC(Cl)(Cl)C(=O)Nc1c(F)ccc(NC(=O)c2cc(NC(=O)[C@H]3[C@H](c4ccc(F)c(C(F)(F)F)c4)C3(Cl)Cl)ccc2Cl)c1F [F1351, 2-Chloro-5-((1R,3R)-2,2-dichloro-3-(4-fluoro-3-(trifluoromethyl)phenyl)cyclopropane-1-carboxamido)-N-(3-(2,2-dichloropropanamido)-2,4-difluorophenyl)benzamide] | 50 to 100 | A (80–100) | 50 to 100 |  |  | 
CC(F)(F)C(=O)Nc1c(F)ccc(NC(=O)c2cc(NC(=O)[C@H]3[C@H](c4ccc(F)c(C(F)(F)F)c4)C3(Cl)Cl)ccc2Cl)c1F [F1352, 2-Chloro-5-((1R,3R)-2,2-dichloro-3-(4-fluoro-3-(trifluoromethyl)phenyl)cyclopropane-1-carboxamido)-N-(3-(2,2-difluoropropanamido)-2,4-difluorophenyl)benzamide] | 50 to 100 | A (80–100) | 50 to 100 |  |  | 
CC(C)(Br)C(=O)Nc1c(F)ccc(NC(=O)c2cc(NC(=O)[C@H]3[C@H](c4ccc(F)c(C(F)(F)F)c4)C3(Cl)Cl)ccc2Cl)c1F [F1354, N-(3-(2-Bromo-2-methylpropanamido)-2,4-difluorophenyl)-2-chloro-5-((1R,3R)-2,2-dichloro-3-(4-fluoro-3-(trifluoromethyl)phenyl)cyclopropane-1-carboxamido)benzamide] | 50 to 100 | A (80–100) | 50 to 100 |  |  | 
O=C(Nc1ccc(F)c(NC(=O)C(Br)Br)c1F)c1cc(NC(=O)[C@H]2[C@H](c3ccc(F)c(C(F)(F)F)c3)C2(Cl)Cl)ccc1Cl [F1355, 2-Chloro-N-(3-(2,2-dibromoacetamido)-2,4-difluorophenyl)-5-((1R,3R)-2,2-dichloro-3-(4-fluoro-3-(trifluoromethyl)phenyl)cyclopropane-1-carboxamido)benzamide] | 50 to 100 | A (80–100) | 50 to 100 |  |  | 
CCC(F)(F)C(=O)Nc1c(F)ccc(NC(=O)c2cc(NC(=O)[C@H]3[C@H](c4ccc(F)c(C(F)(F)F)c4)C3(Cl)Cl)ccc2Cl)c1F [F1357, 2-Chloro-5-((1R,3R)-2,2-dichloro-3-(4-fluoro-3-(trifluoromethyl)phenyl)cyclopropane-1-carboxamido)-N-(3-(2,2-difluorobutanamido)-2,4-difluorophenyl)benzamide] | 50 to 100 | A (80–100) | 50 to 100 |  |  | 
CC1(C(=O)Nc2c(F)ccc(NC(=O)c3cc(NC(=O)[C@H]4[C@H](c5ccc(F)c(C(F)(F)F)c5)C4(Cl)Cl)ccc3Cl)c2F)CC1 [F1362, 2-Chloro-5-((1R,3R)-2,2-dichloro-3-(4-fluoro-3-(trifluoromethyl)phenyl)cyclopropane-1-carboxamido)-N-(2,4-difluoro-3-(1-methylcyclopropane-1-carboxamido)phenyl)benzamide] | 50 to 100 | A (80–100) | 50 to 100 |  |  | 
CCOCC(=O)Nc1c(F)ccc(NC(=O)c2cc(NC(=O)[C@H]3[C@H](c4ccc(F)c(C(F)(F)F)c4)C3(Cl)Cl)ccc2Cl)c1F [F1363, 2-Chloro-5-((1R,3R)-2,2-dichloro-3-(4-fluoro-3-(trifluoromethyl)phenyl)cyclopropane-1-carboxamido)-N-(3-(2-ethoxyacetamido)-2,4-difluorophenyl)benzamide] | 50 to 100 | A (80–100) | 50 to 100 |  |  | 
N#CCC(=O)Nc1c(F)ccc(NC(=O)c2cc(NC(=O)[C@H]3[C@H](c4ccc(F)c(C(F)(F)F)c4)C3(Cl)Cl)ccc2Cl)c1F [F1369, 2-Chloro-N-(3-(2-cyanoacetamido)-2,4-difluorophenyl)-5-((1R,3R)-2,2-dichloro-3-(4-fluoro-3-(trifluoromethyl)phenyl)cyclopropane-1-carboxamido)benzamide] | 50 to 100 | A (80–100) | 50 to 100 |  |  | 
CCCCC(=O)Nc1c(F)ccc(NC(=O)c2cc(NC(=O)[C@H]3[C@H](c4ccc(F)c(C(F)(F)F)c4)C3(Cl)Cl)ccc2Cl)c1F [F1372, 2-Chloro-5-((1R,3R)-2,2-dichloro-3-(4-fluoro-3-(trifluoromethyl)phenyl)cyclopropane-1-carboxamido)-N-(2,4-difluoro-3-pentanamidophenyl)benzamide] | 50 to 100 | A (80–100) | 50 to 100 |  |  | 
CCCC(=O)Nc1c(F)ccc(NC(=O)c2cc(NC(=O)[C@H]3[C@H](c4ccc(F)c(C(F)(F)F)c4)C3(Cl)Cl)ccc2Cl)c1F [F1385, N-(3-Butyramido-2,4-difluorophenyl)-2-chloro-5-((1R,3R)-2,2-dichloro-3-(4-fluoro-3-(trifluoromethyl)phenyl)cyclopropane-1-carboxamido)benzamide] | 50 to 100 | A (80–100) | 50 to 100 |  |  | 
Cc1c(N)ccc(NC(=O)c2cc(NC(=O)[C@H]3[C@H](c4ccc(F)c(C(F)(F)F)c4)C3(Cl)Cl)ccc2Cl)c1C [F1389, N-(4-Amino-2,3-dimethylphenyl)-2-chloro-5-((1R,3R)-2,2-dichloro-3-(4-fluoro-3-(trifluoromethyl)phenyl)cyclopropane-1-carboxamido)benzamide] | 50 to 100 | A (80–100) | 50 to 100 |  |  | 
Nc1ccc(F)c(NC(=O)c2cc(NC(=O)[C@H]3[C@H](c4ccc(F)c(C(F)(F)F)c4)C3(Cl)Cl)ccc2Cl)c1F [F1391, N-(3-Amino-2,6-difluorophenyl)-2-chloro-5-((1R,3R)-2,2-dichloro-3-(4-fluoro-3-(trifluoromethyl)phenyl)cyclopropane-1-carboxamido)benzamide] | 50 to 100 | A (80–100) | 50 to 100 |  |  | 
Cc1c(NC(=O)c2cc(NC(=O)[C@H]3[C@H](c4ccc(F)c(C(F)(F)F)c4)C3(Cl)Cl)ccc2Cl)ccc(NC(=O)C(F)(F)F)c1C [F1392, 2-Chloro-5-((1R,3R)-2,2-dichloro-3-(4-fluoro-3-(trifluoromethyl)phenyl)cyclopropane-1-carboxamido)-N-(2,3-dimethyl-4-(2,2,2-trifluoroacetamido)phenyl)benzamide] |  |  |  | 50 to 100 | A (80–100) | 50 to 100
O=C(Nc1c(F)ccc(NC(=O)C(F)F)c1F)c1cc(NC(=O)[C@H]2[C@H](c3ccc(F)c(C(F)(F)F)c3)C2(Cl)Cl)ccc1Cl [F1394, 2-Chloro-5-((1R,3R)-2,2-dichloro-3-(4-fluoro-3-(trifluoromethyl)phenyl)cyclopropane-1-carboxamido)-N-(3-(2,2-difluoroacetamido)-2,6-difluorophenyl)benzamide] |  |  |  | 50 to 100 | A (80–100) | 50 to 100
O=C(Nc1ccc(F)c(NC(=O)C(F)F)c1F)c1cc(NC(=O)[C@H]2[C@H](c3ccc(F)c(Br)c3)C2(Cl)Cl)ccc1Cl [F1410, 5-((1R,3R)-3-(3-Bromo-4-fluorophenyl)-2,2-dichlorocyclopropane-1-carboxamido)-2-chloro-N-(3-(2,2-difluoroacetamido)-2,4-difluorophenyl)benzamide] |  |  |  | 50 to 100 | A (80–100) | 50 to 100
